Measurements reported in patent US10322154B2, “Sandalwood oil and its uses related to clostridium infections” (Santalis Pharmaceuticals, Inc., priority 2012, dated 2019).
Several values for one entry are separate records, joined by “and”; a condition that tells them apart may be missing. Equal entries are not always repeated.

Tested on: Clostridium difficile
Assay: C. difficile challenge in mice, qualitative fecal pellet analysis
Type: in vivo, C57BL/6 mouse
Design: key: +: positive (for the presence of C. difficile in the stool); −: negative
Details: 50 mg/kg oral gavage Days 0-4, per animal
Method: Challenge Preparation: Challenge preparation was performed inside an anaerobe glove box in IW 305 in order to minimize oxygen exposure. A seed stock of the challenge organism (C. difficile) was thawed and added to the appropriate growth medium on Day −1. The organism was incubated anaerobically overnight (18-24 hrs) at 37° C. On the day of challenge (Day 0), the culture was diluted in DPBS to achieve a target concentration of 10^4 CFU/dose. Syringes with attached gavage needles were loaded with challenge material and placed on ice for transfer to the animal group.
Polymer Carrier: The polymer carrier used in these studies was a composition comprising polyethylene glycol 8000 (PEG8000) and hydroxypropyl methylcellulose acetate succinate (HPMCAS-LF). HPMCAS-LF was used to make the polymer insoluble at low pH. The formulation comprising a polymer carrier and sandalwood oil comprised about 50% PEG8000, about 41.67% sandalwood oil and about 8.33% HPMCAS-LF.
60 female C57BL\6 mice that weighed approximately 26-30 grams and were approximately 7-11 weeks old on Day 0 were used. The C57BL/6 mouse is susceptible to C. difficile and used extensively as a good animal model for the evaluation of antibacterial therapeutics. Treatments were administered via oral gavage and/or intraperitoneally in order to mimic treatment in humans. The challenge was administered via oral gavage as this is both an effective and minimally invasive route of administration that mimics the natural route of infection.
The body weights required for randomization were determined in Week −1 (the lowest body weights were excluded from randomization). After randomization, mice were assigned to one of six groups as indicated below in Table 6:
Treatment Procedure: All treatment doses were vortexed before administration to animals. On Days −6, −5 and −4, animals were administered the antibiotic cocktail via oral gavage at a volume of 0.3 mL. Treatments were administered ±1 hour from the initial day of dosing. On Day −1, animals were administered Clindamycin (10 mg/kg) via intraperitoneal (IP) at a volume of 0.4 mL. Post-challenge on Days 0-4, animals were administered the appropriate test article as listed in the table above via oral gavage at a volume of 0.3 mL. Treatments were administered ±1 hour from the initial day of dosing.
Challenge: On Day 0, mice were challenged via oral gavage with Clostridium difficile at a volume of 0.2 mL. The bacterial suspension was supplied (and maintained) on ice in pre filled syringes and inverted prior to administration to each group. […]
Microbiology Analysis: To isolate C. difficile, fecal pellets or swabs were solubilized in PBS and then cultured onto CDSA. […] Results were recorded as positive (for the presence of C. difficile in the stool) or negative.

Structure (SMILES): CN[C@H](CC(C)C)C(=O)N[C@H]1C(=O)N[C@@H](CC(N)=O)C(=O)N[C@H]2C(=O)N[C@H]3C(=O)N[C@H](C(=O)N[C@H](C(=O)O)c4cc(O)cc(O)c4-c4cc3ccc4O)[C@H](O)c3ccc(c(Cl)c3)Oc3cc2cc(c3O[C@@H]2O[C@H](CO)[C@@H](O)[C@H](O)[C@H]2O[C@H]2C[C@](C)(N)[C@H](O)[C@H](C)O2)Oc2ccc(cc2Cl)[C@H]1O [Vancomycin]
- Qualitative Fecal Pellet Analysis (presence of C. difficile in the stool) (Day 1): −
- Qualitative Fecal Pellet Analysis (presence of C. difficile in the stool) (Day 2, 50 mg/kg): − (9×) and +
- Qualitative Fecal Pellet Analysis (presence of C. difficile in the stool) (Day 3): −
- Qualitative Fecal Pellet Analysis (presence of C. difficile in the stool) (Day 4): −
